Reference: PMC10442441, “Characterization of two O-methyltransferases involved in the biosynthesis of O-methylated catechins in tea plant” (Nature Communications, 2023)
Where two headings read alike, the source gives them in different places.

Biological target: T1, CsFAOMT1 (Camellia sinensis, UniProt A0A7J7GXF2)
T1 construct: gene HYC85_015345
Conditions: 1.0 mM Mg2+, pH 7.4, 40 °C, exact value in supplement

T1 sequence (A0A7J7GXF2 entry or part of it): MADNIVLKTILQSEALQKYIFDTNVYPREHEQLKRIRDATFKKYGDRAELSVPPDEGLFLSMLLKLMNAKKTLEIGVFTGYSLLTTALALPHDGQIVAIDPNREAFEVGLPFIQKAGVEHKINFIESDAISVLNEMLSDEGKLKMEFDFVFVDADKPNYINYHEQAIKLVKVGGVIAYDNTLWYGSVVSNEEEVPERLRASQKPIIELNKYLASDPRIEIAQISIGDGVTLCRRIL

| Km (1 mM SAM) [µM] | Km (saturating SAM) [µM] | Structure (SMILES) |
| --- | --- | --- |
| > 2500 |  | O=c1c(O[C@@H]2O[C@H](CO)[C@@H](O)[C@H](O)[C@H]2O)c(-c2ccc(O)c(O)c2)oc2cc(O)cc(O)c12 [isoquercitrin] |
|  | < 4 | COC(=O)c1cc(O)c(O)c(O)c1 [methyl gallate] |
|  | < 4 | O=c1c(O)c(-c2cc(O)c(O)c(O)c2)oc2cc(O)cc(O)c12 [myricetin] |
